This note sets out measurements from patent US7786120B2, “Pyridones useful as inhibitors of kinases” (Vertex Pharmaceuticals Incorporated, priority 2005, dated 2010).

What all share (assay type): biochemical
In one assay the target is T1, human Itk kinase (Homo sapiens, UniProt Q08881).
T1 sequence (Q08881 1-620): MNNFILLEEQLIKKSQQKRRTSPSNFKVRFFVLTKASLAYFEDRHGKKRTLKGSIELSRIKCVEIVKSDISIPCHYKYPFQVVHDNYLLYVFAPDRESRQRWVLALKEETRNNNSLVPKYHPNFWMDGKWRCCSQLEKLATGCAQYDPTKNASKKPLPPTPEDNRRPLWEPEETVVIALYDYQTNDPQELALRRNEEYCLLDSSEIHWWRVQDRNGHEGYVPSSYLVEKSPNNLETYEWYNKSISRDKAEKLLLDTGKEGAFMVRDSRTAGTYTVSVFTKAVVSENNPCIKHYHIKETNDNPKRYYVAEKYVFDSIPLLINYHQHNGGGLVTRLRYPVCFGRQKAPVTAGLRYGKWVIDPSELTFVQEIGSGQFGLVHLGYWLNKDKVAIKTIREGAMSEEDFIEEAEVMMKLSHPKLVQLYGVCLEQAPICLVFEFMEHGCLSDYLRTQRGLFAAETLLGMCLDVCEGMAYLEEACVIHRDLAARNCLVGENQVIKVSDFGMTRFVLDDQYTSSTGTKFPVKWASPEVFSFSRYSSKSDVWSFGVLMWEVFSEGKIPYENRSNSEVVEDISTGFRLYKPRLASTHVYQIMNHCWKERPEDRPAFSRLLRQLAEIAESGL
The assay is described as follows: Itk Inhibition Assay (radioactivity-based or spectrophotometric). The following applies: inhibition of human Itk kinase. On the procedure:
The compounds of the present invention can be evaluated as inhibitors of human Itk kinase using either a radioactivity-based or a spectrophotometric assay. In general, compounds of the invention, including compounds in Table 1, are effective for the inhibition of Itk. Specifically, compounds I.1 to I.5 and compound I.7 have a Ki value of <1 μM and compounds I.6 and I.8 have a Ki value of >1 μM.
Assays were carried out in a mixture of 100 mM HEPES (pH 7.5), 10 mM MgCl2, 25 mM NaCl, 0.01% BSA and 1 mM DTT. Final substrate concentrations were 15 μM [γ-^33P]ATP (400 μCi ^33P ATP/μmol ATP, Amersham Pharmacia Biotech/Sigma Chemicals) and 2 μM peptide (SAM68 protein Δ332-443). Assays were carried out at 25° C. in the presence of 30 nM Itk. An assay stock buffer solution was prepared containing all of the reagents listed above, with the exception of ATP and the test compound of interest. 50 μL of the stock solution was placed in a 96 well plate followed by addition of 1.5 μL of DMSO stock containing serial dilutions of the test compound (typically starting from a final concentration of 15 μM with 2-fold serial dilutions) in duplicate (final DMSO concentration 1.5%). The plate was pre-incubated for 10 minutes at 25° C. and the reaction initiated by addition of 50 μL [γ-^33P]ATP (final concentration 15 μM).
The reaction was stopped after 10 minutes by the addition of 50 μL of a TCA/ATP mixture (20% TCA, 0.4 mM ATP). A Unifilter GF/C 96 well plate (Perkin Elmer Life Sciences, Cat no. 6005174) was pretreated with 5 μL Milli Q water prior to the addition of the entire reaction mixture (150 μL). […]
IC50 data were calculated from non-linear regression analysis of the initial rate data using the Prism software package (GraphPad Prism version 3.0cx for Macintosh, GraphPad Software, San Diego, Calif., USA). […]
Ki(app) data were calculated from non-linear regression analysis of the initial rate data using the Prism software package (GraphPad Prism version 3.0cx for Macintosh, GraphPad Software, San Diego, Calif., USA). […]

The next assay addresses JAK2 (Homo sapiens, UniProt O60674). The assay is described as follows: JAK2 kinase inhibition (assays similar to the ones described). As to the method: (§1) Compound I.9 was tested in assays similar to the ones described herein and found to inhibit FLT-3, JAK2, and JAK3 kinases.
The next assay addresses T2, FLT-3 (Homo sapiens, UniProt P36888).
T2 sequence (P36888 27-993): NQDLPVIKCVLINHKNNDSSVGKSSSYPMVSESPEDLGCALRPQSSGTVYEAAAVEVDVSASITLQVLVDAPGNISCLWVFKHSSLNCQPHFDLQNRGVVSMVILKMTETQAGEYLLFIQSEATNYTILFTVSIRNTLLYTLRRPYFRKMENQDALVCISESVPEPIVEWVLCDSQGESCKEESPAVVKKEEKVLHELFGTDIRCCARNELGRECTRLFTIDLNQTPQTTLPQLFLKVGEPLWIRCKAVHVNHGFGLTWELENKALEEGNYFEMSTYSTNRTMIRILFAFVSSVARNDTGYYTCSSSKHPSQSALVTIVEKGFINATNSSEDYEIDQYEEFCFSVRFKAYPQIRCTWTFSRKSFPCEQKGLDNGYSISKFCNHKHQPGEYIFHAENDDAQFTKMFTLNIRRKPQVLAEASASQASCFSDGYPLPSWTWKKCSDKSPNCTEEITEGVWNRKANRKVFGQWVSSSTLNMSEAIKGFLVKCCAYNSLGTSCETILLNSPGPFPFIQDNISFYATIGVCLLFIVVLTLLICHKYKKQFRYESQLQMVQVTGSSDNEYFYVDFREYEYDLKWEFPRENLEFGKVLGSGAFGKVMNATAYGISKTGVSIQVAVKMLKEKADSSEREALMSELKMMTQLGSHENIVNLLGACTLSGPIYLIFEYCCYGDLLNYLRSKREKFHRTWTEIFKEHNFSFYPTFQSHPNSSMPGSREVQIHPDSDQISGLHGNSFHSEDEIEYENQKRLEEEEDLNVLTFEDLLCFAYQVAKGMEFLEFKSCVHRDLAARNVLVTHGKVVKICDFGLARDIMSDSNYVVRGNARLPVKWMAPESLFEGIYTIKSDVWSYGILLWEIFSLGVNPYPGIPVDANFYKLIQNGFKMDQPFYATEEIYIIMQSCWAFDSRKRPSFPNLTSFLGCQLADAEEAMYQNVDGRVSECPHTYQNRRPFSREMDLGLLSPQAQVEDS
The assay is described as follows: FLT-3 kinase inhibition (assays similar to the ones described). As to the method: as §1

In the next assay the target is T3, JAK3 (Homo sapiens, UniProt P52333).
T3 sequence (P52333 1-1124): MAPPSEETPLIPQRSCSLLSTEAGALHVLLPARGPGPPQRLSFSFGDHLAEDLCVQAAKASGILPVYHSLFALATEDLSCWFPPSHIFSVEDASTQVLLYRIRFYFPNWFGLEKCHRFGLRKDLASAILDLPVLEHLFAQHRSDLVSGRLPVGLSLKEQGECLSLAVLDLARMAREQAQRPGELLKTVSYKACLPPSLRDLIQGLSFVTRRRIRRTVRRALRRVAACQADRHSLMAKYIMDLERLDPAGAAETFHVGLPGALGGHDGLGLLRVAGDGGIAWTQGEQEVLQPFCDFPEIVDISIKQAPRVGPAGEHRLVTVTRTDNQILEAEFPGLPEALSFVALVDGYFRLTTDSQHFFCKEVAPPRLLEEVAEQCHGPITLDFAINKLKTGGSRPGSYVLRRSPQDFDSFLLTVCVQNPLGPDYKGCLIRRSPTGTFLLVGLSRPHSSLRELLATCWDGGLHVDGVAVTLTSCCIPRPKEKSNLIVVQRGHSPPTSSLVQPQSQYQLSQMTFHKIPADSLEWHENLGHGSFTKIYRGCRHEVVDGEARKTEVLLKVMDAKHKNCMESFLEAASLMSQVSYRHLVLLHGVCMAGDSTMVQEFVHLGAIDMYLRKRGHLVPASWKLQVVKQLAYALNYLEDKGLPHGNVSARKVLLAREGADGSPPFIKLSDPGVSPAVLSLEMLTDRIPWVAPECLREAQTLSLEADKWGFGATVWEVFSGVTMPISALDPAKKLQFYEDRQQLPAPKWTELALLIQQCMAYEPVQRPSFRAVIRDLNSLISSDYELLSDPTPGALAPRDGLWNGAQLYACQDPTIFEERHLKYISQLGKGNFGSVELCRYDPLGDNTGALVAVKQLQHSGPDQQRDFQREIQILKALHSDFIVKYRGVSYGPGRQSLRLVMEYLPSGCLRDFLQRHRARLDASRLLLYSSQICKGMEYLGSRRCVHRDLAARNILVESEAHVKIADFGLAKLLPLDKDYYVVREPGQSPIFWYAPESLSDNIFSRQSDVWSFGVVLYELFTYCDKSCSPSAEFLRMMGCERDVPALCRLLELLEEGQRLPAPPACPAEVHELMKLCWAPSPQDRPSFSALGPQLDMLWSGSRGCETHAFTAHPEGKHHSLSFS
The assay is described as follows: JAK3 kinase inhibition (assays similar to the ones described). As to the method: as §1

JAK2, sequence (O60674 whole entry, species assumed): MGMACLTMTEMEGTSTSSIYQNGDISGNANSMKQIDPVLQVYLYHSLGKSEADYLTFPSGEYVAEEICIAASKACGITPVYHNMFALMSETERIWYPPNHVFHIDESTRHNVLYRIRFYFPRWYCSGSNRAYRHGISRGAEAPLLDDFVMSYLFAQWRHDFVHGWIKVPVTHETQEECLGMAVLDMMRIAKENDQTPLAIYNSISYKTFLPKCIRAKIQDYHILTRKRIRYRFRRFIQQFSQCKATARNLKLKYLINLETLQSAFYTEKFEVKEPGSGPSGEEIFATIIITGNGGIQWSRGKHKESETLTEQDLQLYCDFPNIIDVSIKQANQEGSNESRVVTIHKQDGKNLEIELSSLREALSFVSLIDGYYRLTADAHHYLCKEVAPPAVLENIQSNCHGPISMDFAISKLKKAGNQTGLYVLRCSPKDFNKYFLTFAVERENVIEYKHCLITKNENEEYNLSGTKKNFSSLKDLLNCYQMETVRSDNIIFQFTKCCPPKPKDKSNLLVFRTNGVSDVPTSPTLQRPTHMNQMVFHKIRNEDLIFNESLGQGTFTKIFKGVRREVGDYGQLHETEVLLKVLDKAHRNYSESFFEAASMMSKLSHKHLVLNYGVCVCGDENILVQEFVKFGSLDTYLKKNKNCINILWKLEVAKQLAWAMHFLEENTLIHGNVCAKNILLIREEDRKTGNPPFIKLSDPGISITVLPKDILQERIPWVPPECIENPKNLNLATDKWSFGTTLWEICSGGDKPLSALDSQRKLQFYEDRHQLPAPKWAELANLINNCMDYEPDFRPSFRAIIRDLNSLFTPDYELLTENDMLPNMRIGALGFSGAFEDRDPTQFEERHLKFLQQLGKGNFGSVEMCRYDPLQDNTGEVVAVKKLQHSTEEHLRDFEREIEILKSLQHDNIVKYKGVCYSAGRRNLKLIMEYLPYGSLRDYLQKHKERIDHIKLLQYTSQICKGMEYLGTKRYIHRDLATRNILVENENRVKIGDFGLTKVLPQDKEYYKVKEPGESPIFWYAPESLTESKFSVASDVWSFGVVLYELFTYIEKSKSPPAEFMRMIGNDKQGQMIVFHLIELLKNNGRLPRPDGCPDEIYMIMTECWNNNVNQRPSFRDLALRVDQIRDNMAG

In the case of `CNc1cncc(-c2c[nH]c(=O)c(/C=C3\C(=O)Nc4ccccc43)c2)n1` [I.6, 3-((1,2-dihydro-5-(6-(methylamino)pyrazin-2-yl)-2-oxopyridin-3-yl)methylene)indolin-2-one], on human Itk kinase, the inhibitory constant (Ki) was above 1 µM.
Same read-out and setting: the result for `CNc1cncc(-c2c[nH]c(=O)c(/C=C/c3cc(CN4CCN(S(C)(=O)=O)CC4)ccc3[N+](=O)[O-])c2)n1` [I.7] reads below 1 µM; that for `CNc1cncc(-c2c[nH]c(=O)c(/C=C/c3cc(OC)ccc3[N+](=O)[O-])c2)n1` [I.8], above 1 µM.
`O=c1[nH]cc(-c2ccccc2Cl)cc1/C=C/c1cnc2ccccn12` [I.9]: the “inhibition of JAK2 kinase (in words)” value at JAK2 is “inhibit”. Further, on FLT-3, the “inhibition of FLT-3 kinase (in words)” value is on record as “inhibit”. At JAK3, the “inhibition of JAK3 kinase (in words)” value is recorded as “inhibit”.
